In patent US10370385B2, “Tricyclic mosquitocides and methods of making and using thereof” (The Arizona Board of Regents on Behalf of the University of …, priority 2014, dated 2019):

What was measured:
[1] = tested on: Aedes aegypti (Rockefeller strain) mosquitoes; assay: Microinjection into female mosquitoes before blood feeding; observation for defective phenotypes (midgut, blood meal storage); format: in vivo; conditions: 200 nL of 5.0 mM compound in 5% DMSO microinjected into four day old females; fed human blood one day later
Method: Aedes aegypti (Rockefeller strain) mosquitoes were reared in standard conditions. Four day old female mosquitoes were microinjected with 200 nL of 5% DMSO (control) or the compound described in Example 1, i.e. 4-isopropyl-8-phenyl-1,3,4,6,6a,9b-hexahydrothiopyrano [3,4-e]isoindole-7,9(8H,9aH)-dione (5.0 mM in 5% DMSO), using Nanoject II (Drummond). The injected mosquitoes were recovered for one day in the environmental chamber and fed on warmed human blood through a membrane feeder. Twenty fully fed mosquitoes from each group were observed under a dissecting microscope for defective phenotypes, including midgut and primary follicle development in the ovaries during the first gonotrophic cycle.

blood-fed mosquitoes = assay: Evaluation of follicle size after microinjection into blood-fed mosquitos; format: in vivo, Aedes aegypti; conditions: 200 nl of 0.7 mM compound microinjected one hour after blood feeding; ovaries dissected 48 h post blood meal; DMSO control 452.8±6.4 μm
Method: The mosquitos were reared in environmental chambers. Larvae were then fed with a mixture of tropical flakes, rat chow, liver powder, or cat food pellets. Adult pests were maintained on 10% sucrose. Four-day old mosquitos were allowed to feed on human blood supplemented with fresh ATP. One hour after blood feeding, the mosquitos were briefly chilled at 4° C. to immobilize. 200 nl of the compound, 4-isopropyl-8-phenyl-1,3,4,6,6a,9b-hexahydrothiopyrano [3,4-e]isoindole-7,9(8H,9aH)-dione, was diluted in water to a final concentration of 0.7 mM before use. Then the compound was microinjected with a microinjector into fully fed mosquitos. For each experiment, the mosquitos were also microinjected with 2% DMSO (control). Mosquitos were allowed to feed 10% sucrose, and 48 h post blood meal, ovaries were dissected from the injected mosquitos in 1×PBS under a microscope. Ovaries were teased to separate follicles, and the images were digitally captured for follicle length measurement.

[2] = tested on: mosquito larvae (second instar); assay: Evaluation of mosquito larval mortality; format: in vivo, Aedes aegypti; conditions: 0.2 mM in larval growth media, 24 hours of exposure
Method: Two-day-old second instar larvae were transferred to wells in a plate containing 1 ml of larval growth media. The 4-isopropyl-8-phenyl-1,3,4,6,6a,9b-hexahydrothiopyrano [3,4-e]isoindole-7,9(8H,9aH)-dione and DMSO (control) were added directly to the media and swirled. The final concentration of the 4-isopropyl-8-phenyl-1,3,4,6,6a,9b-hexahydrothiopyrano [3,4-e]isoindole-7,9(8H,9aH)-dione in each well was 0.2 mM, the DMSO concentration was 0.2%. The plates were kept in the environmental chamber. Mosquito larvae were examined under a microscope for any sign of mortality 24 hours after exposure. Data obtained from at least three biological replicates were statistically analyzed with the Bonferroni post tests.

CC(C)[C@@H]1CSC[C@@H]2C1=CC[C@@H]1C(=O)N(c3ccccc3)C(=O)[C@@H]12 [4-isopropyl-8-phenyl-1,3,4,6,6a,9b-hexahydrothiopyrano [3,4-e]isoindole-7,9(8H,9aH)-dione]
blood-fed mosquitoes exhibiting the defect in the alimentary canal (blood meal misdirected into the ventral diverticulum) [1]: 40%
follicle size (blood-fed mosquitoes): 145.6±11.0 μm
number of mosquito larvae died [2]: 18 out of 45 mosquito larvae
mosquito larvae died ([2]; all control larvae survived): 40%
